The text below walks through data of patent publication US20220024921A1, “1,3,4-OXADIAZOLONE COMPOUND AND PHARMACEUTICAL” (NIPPON SHINYAKU CO., LTD., priority 2018, published 2022).

The target of assay [1] is PIM1 transgenic cells (Ba/F3) (Homo sapiens, UniProt P11309). Briefly: Proliferation inhibitory effect on PIM1 transgenic cells. The format is cell-based, mouse. The following applies: proliferation inhibition, 72 hours, Cell Counting Kit-8, read-out: PIM1 IC50. In a few lines: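 Mouse Ba/F3 pro-B cells were retrovirally transduced with human PIM1 so that their proliferation depends on PIM1. Cells were treated with compound at 1–10000 nM final for 72 h, then read by CCK-8 (OD450−OD650). Inhibition was set against DMSO (0%) and no-cell blank (100%), and IC50 was obtained by two-parameter logistic regression.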

For assay [2], the target named is T1, PIM1 serine/threonine kinase (Homo sapiens, UniProt P11309).
T1 construct: purchased Carna Bioscience, Inc
The assay is described as follows: PIM1 serine/threonine kinase inhibitory effect. The class given is biochemical. The following applies: PIM1 serine/threonine kinase activity; ATP 40 μM; 30° C., 30 minutes. The method, boiled down:
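Recombinant PIM1 (0.15 μg/ml final) with 0.5 μM biotinylated substrate and 40 μM ATP in pH 7.0 HEPES/MgCl2 buffer, 30 min at 30° C. Compound range was 0.01–10000 nM final, n=2. HTRF detection with streptavidin-XL665 and anti-phospho antibody-cryptate, 1 h; IC50 from non-linear regression of the 665/620 ratio.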

Structures can show the parent of a compound that is named as a salt.

T1 sequence (P11309 whole entry): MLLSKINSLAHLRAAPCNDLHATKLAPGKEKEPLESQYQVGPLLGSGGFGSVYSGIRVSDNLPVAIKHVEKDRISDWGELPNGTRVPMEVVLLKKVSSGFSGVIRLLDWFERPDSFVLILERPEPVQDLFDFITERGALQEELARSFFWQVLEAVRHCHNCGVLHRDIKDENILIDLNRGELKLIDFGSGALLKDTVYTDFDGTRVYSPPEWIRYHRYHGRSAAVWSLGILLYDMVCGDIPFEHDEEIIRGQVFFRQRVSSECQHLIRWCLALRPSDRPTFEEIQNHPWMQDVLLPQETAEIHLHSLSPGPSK
PIM1 transgenic cells (Ba/F3), sequence (P11309 whole entry, stated change not applied): as the sequence (P11309 whole entry) above

Turning to `C[C@H](Nc1cc(-c2n[nH]c(=O)o2)cc(Cl)c1Cl)C1CCNCC1` [Example 79, 5-(3,4-dichloro-5-{[(1S)-1-(piperidin-4-yl)ethyl]amino}phenyl)-1,3,4-oxadiazol-2(3H)-one dihydrochloride], the GI50 in assay [1] is 53 nM. Also, inhibition in assay [2] was half-maximal at 0.8 nM (IC50).

For the molecule `CC(CC1CCNCC1)Nc1cc(-c2n[nH]c(=O)o2)ccc1C(F)(F)F` (centres unmarked) [Example 81, 5-[3-{[1-(piperidin-4-yl)propan-2-yl]amino}-4-(trifluoromethyl)phenyl]-1,3,4-oxadiazol-2(3H)-one hydrochloride], in assay [1], the GI50 was 600 nM. Moreover, the IC50 – broadly, the concentration needed to halve the response being measured – in assay [2] came to 4.3 nM.

On to `C[C@H](Nc1cc(-c2n[nH]c(=O)o2)cc(F)c1Br)C1CCNCC1` [Example 83, 5-(4-bromo-3-fluoro-5-{[(1S)-1-(piperidin-4-yl)ethyl]amino}phenyl)-1,3,4-oxadiazol-2(3H)-one hydrochloride], for which the GI50 in assay [1] came to 75 nM. The same molecule returned an IC50 in assay [2] of 1 nM.

As for `Cc1cc(-c2n[nH]c(=O)o2)cc(N[C@@H](C)C2CCNCC2)c1Cl` [Example 84, 5-(4-chloro-3-methyl-5-{[(1S)-1-(piperidin-4-yl)ethyl]amino}phenyl)-1,3,4-oxadiazol-2(3H)-one dihydrochloride], the GI50 in assay [1] was 36 nM. The same molecule yielded an IC50 in assay [2] of 1.1 nM.

In the case of `C[C@H](Nc1cc(-c2n[nH]c(=O)o2)ccc1C#N)C1CCNCC1` [Example 85, 4-(5-oxo-4,5-dihydro-1,3,4-oxadiazol-2-yl)-2-{[(1S)-1-(piperidin-4-yl)ethyl]amino}benzonitrile hydrochloride], the GI50 in assay [1] stood at 610 nM. Also, in assay [2], the midpoint of inhibition, the IC50, lay at 4.7 nM.

Turning to `N[C@H]1CC[C@H](CNc2cc(-c3n[nH]c(=O)o3)cc(F)c2Cl)CC1` [Example 86, 5-[3-({[(1r,4r)-4-aminocyclohexyl]methyl}amino)-4-chloro-5-fluorophenyl]-1,3,4-oxadiazol-2(3H)-one hydrochloride], the GI50 in assay [1] was found to be 61 nM. For the same molecule, the IC50 in assay [2] was 0.6 nM.

As to `C[C@H](Nc1c(F)c(-c2n[nH]c(=O)o2)cc(Cl)c1Cl)C1CCNCC1` [Example 87, 5-(4,5-dichloro-2-fluoro-3-{[(1S)-1-(piperidin-4-yl)ethyl]amino}phenyl)-1,3,4-oxadiazol-2(3H)-one hydrochloride], in assay [1], the GI50 amounted to 64 nM. The same molecule had an IC50 in assay [2] of 1.2 nM.

Consider `C[C@H](Nc1c(F)c(-c2n[nH]c(=O)o2)cc(F)c1Cl)C1CCNCC1` [Example 88, 5-(4-chloro-2,5-difluoro-3-{[(1S)-1-(piperidin-4-yl)ethyl]amino}phenyl)-1,3,4-oxadiazol-2(3H)-one hydrochloride], for which the GI50 in assay [1] worked out at 110 nM. This molecule had an IC50 in assay [2] of 2.4 nM.

`C[C@H](Nc1cc(-c2n[nH]c(=O)o2)cc(F)c1F)C1CCNCC1` [Example 89, 5-(3,4-difluoro-5-{[(1S)-1-(piperidin-4-yl)ethyl]amino}phenyl)-1,3,4-oxadiazol-2(3H)-one]: in assay [1], the GI50 is 250 nM. In assay [2], this molecule displayed a 50% inhibitory concentration (IC50) of 5.4 nM.

On to `C[C@H](Nc1cc(-c2n[nH]c(=O)o2)ccc1C(F)F)C1CCNCC1` [Example 90, 5-[4-(difluoromethyl)-3-{[(1S)-1-(piperidin-4-yl)ethyl]amino}phenyl]-1,3,4-oxadiazol-2(3H)-one], for which the GI50 in assay [1] was 3800 nM. Further, the IC50 in assay [2] worked out at 21 nM.

On to `C[C@H](Nc1cc(-c2n[nH]c(=O)o2)cc([N+](=O)[O-])c1Cl)C1CCNCC1` [Example 91, 5-(4-chloro-3-nitro-5-{[(1S)-1-(piperidin-4-yl)ethyl]amino}phenyl)-1,3,4-oxadiazol-2(3H)-one hydrochloride], for which, in assay [1], the GI50 came to 210 nM. Besides, the IC50 in assay [2] turned out to be 1.5 nM.

Consider `C[C@H](Nc1cc(-c2n[nH]c(=O)o2)cc(N)c1Cl)C1CCNCC1` [Example 92, 5-(3-amino-4-chloro-5-{[(1S)-1-(piperidin-4-yl)ethyl]amino}phenyl)-1,3,4-oxadiazol-2(3H)-one dihydrochloride], for which the GI50 in assay [1] stood at 280 nM. In addition, the IC50 in assay [2] is 2.6 nM.

With `Cc1cc(Cl)c(N[C@@H](C)C2CCNCC2)cc1-c1n[nH]c(=O)o1` [Example 94, 5-(4-chloro-2-methyl-5-{[(1S)-1-(piperidin-4-yl)ethyl]amino}phenyl)-1,3,4-oxadiazol-2(3H)-one hydrochloride], the GI50 in assay [1] is 140 nM. Moreover, the midpoint of inhibition in assay [2], the IC50, lay at 8.4 nM.

For the molecule `C[C@H](Nc1cc(-c2n[nH]c(=O)o2)c(F)cc1Cl)C1CCNCC1` [Example 95, 5-(4-chloro-2-fluoro-5-{[(1S)-1-(piperidin-4-yl)ethyl]amino}phenyl)-1,3,4-oxadiazol-2(3H)-one hydrochloride], the GI50 in assay [1] amounted to 590 nM. The molecule also showed an IC50 in assay [2] of 11 nM.

In the case of `C[C@H](Nc1cc(-c2n[nH]c(=O)o2)c(Cl)cc1Cl)C1CCNCC1` [Example 96, 5-(2,4-dichloro-5-{[(1S)-1-(piperidin-4-yl)ethyl]amino}phenyl)-1,3,4-oxadiazol-2(3H)-one hydrochloride], in assay [1], the GI50 is 380 nM. This molecule showed an IC50 in assay [2] of 6.2 nM.

As for `Cc1c(Cl)cc(-c2n[nH]c(=O)o2)cc1N[C@@H](C)C1CCNCC1` [Example 98, 5-(3-chloro-4-methyl-5-{[(1S)-1-(piperidin-4-yl)ethyl]amino}phenyl)-1,3,4-oxadiazol-2(3H)-one dihydrochloride], the GI50 in assay [1] stood at 79 nM. In assay [2], this molecule yielded an IC50 of 2 nM.

As for `Cc1c(F)cc(-c2n[nH]c(=O)o2)cc1N[C@@H](C)C1CCNCC1` [Example 99, 5-(3-fluoro-4-methyl-5-{[(1S)-1-(piperidin-4-yl)ethyl]amino}phenyl)-1,3,4-oxadiazol-2(3H)-one dihydrochloride], in assay [1], the GI50 amounted to 97 nM. This molecule had an IC50 in assay [2] of 3.9 nM.

Turning to `C[C@H](Nc1cc(-c2n[nH]c(=O)o2)cc2[nH]ncc12)C1CCNCC1` [Example 100, 5-(4-{[(1S)-1-(piperidin-4-yl)ethyl]amino}-1H-indazol-6-yl)-1,3,4-oxadiazol-2(3H)-one dihydrochloride], the GI50 in assay [1] was 260 nM. In assay [2], this molecule showed an IC50 of 1.9 nM.

With `C[C@H](Nc1cc(-c2n[nH]c(=O)o2)cc(C(F)(F)F)c1Cl)C1CCNCC1` [Example 101, 5-[4-chloro-3-{[(1S)-1-(piperidin-4-yl)ethyl]amino}-5-(trifluoromethyl)phenyl]-1,3,4-oxadiazol-2(3H)-one dihydrochloride], the GI50 in assay [1] was found to be 61 nM. Besides, half-maximal inhibition in assay [2] (IC50) was put at 2.1 nM.

For `CC(C)Oc1c(Cl)cc(-c2n[nH]c(=O)o2)cc1N[C@@H](C)C1CCNCC1` [Example 103, 5-(3-chloro-5-{[(1S)-1-(piperidin-4-yl)ethyl]amino}-4-[(propan-2-yl)oxy]phenyl)-1,3,4-oxadiazol-2(3H)-one hydrochloride], the GI50 in assay [1] was found to be 120 nM. Also, in assay [2], 5 nM corresponded to half-maximal inhibition (IC50).

With `COc1c(Cl)cc(-c2n[nH]c(=O)o2)cc1N[C@@H](C)C1CCNCC1` [Example 104, 5-(3-chloro-4-methoxy-5-{[(1S)-1-(piperidin-4-yl)ethyl]amino}phenyl)-1,3,4-oxadiazol-2(3H)-one hydrochloride], the GI50 in assay [1] turned out to be 110 nM. Moreover, the IC50 in assay [2] worked out at 4 nM.

Take `C[C@H](Nc1cc(Cl)cc(-c2n[nH]c(=O)o2)c1)C1CCNCC1` [Example 105, 5-(3-chloro-5-{[(1S)-1-(piperidin-4-yl)ethyl]amino}phenyl)-1,3,4-oxadiazol-2(3H)-one dihydrochloride]: the GI50 in assay [1] was determined as 550 nM. In addition, the half-inhibitory concentration (IC50) in assay [2] is 12 nM.

`C[C@H](Nc1cc(-c2n[nH]c(=O)o2)cc(S(F)(F)(F)(F)F)c1)C1CCNCC1` [Example 107, 5-[3-(pentafluoro-λ^6-sulfanyl)-5-{[(1S)-1-(piperidin-4-yl)ethyl]amino}phenyl]-1,3,4-oxadiazol-2(3H)-one hydrochloride]: the GI50 in assay [1] turned out to be 6500 nM. The molecule further displayed an IC50 in assay [2] of 25 nM.

On to `O=c1[nH]nc(-c2ccc(C(F)(F)F)c(NCC3(F)CCNCC3)c2)o1` [Example 108, 5-[3-{[(4-fluoropiperidin-4-yl)methyl]amino}-4-(trifluoromethyl)phenyl]-1,3,4-oxadiazol-2(3H)-one hydrochloride], for which, in assay [1], the GI50 was 270 nM. The molecule further gave an IC50 in assay [2] of 19 nM.

Consider `O=c1[nH]nc(-c2ccc(C(F)(F)F)c(NCC3(F)CCCNC3)c2)o1` (centres unmarked) [Example 109, 5-[3-{[(3-fluoropiperidin-3-yl)methyl]amino}-4-(trifluoromethyl)phenyl]-1,3,4-oxadiazol-2(3H)-one hydrochloride], for which, in assay [1], the GI50 is 480 nM. Further, in assay [2], 28 nM corresponded to half-maximal inhibition (IC50).

On to `C[C@H](Nc1cc(-c2n[nH]c(=O)o2)cc(C#N)c1Cl)C1CCNCC1` [Example 110, 2-chloro-5-(5-oxo-4,5-dihydro-1,3,4-oxadiazol-2-yl)-3-{[(1S)-1-(piperidin-4-yl)ethyl]amino}benzonitrile hydrochloride], for which, in assay [1], the GI50 was determined as 2100 nM. This molecule also displayed an IC50 in assay [2] of 3.5 nM.

Consider `C[C@@H](Nc1cc(-c2n[nH]c(=O)o2)ccc1C(F)(F)F)[C@H]1CC[C@H](N)CC1` [Example 111, 5-[3-({(1R)-1-[(1r,4R)-4-aminocyclohexyl]ethyl}amino)-4-(trifluoromethyl)phenyl]-1,3,4-oxadiazol-2(3H)-one hydrochloride], for which, in assay [1], the GI50 was 140 nM. Half-maximal inhibition in assay [2] (IC50) required 6.4 nM.

In the case of `O=c1[nH]nc(-c2ccc(C(F)(F)F)c(N[C@@H](C(F)F)C3CCNCC3)c2)o1` [Example 113, 5-[3-{[(1R)-2,2-difluoro-1-(piperidin-4-yl)ethyl]amino}-4-(trifluoromethyl)phenyl]-1,3,4-oxadiazol-2(3H)-one hydrochloride], the GI50 in assay [1] amounted to 81 nM. This molecule returned an IC50 in assay [2] of 3.6 nM.
